From article PMC10748408 (Frontiers in Oncology, 2023)

How the values were obtained:
Assay type in all cases: in vivo, BALB/c mice
tumor-bearing mice = experiment: Serum biochemical parameters (ALT, AST, creatinine, urea) of tumor-bearing mice treated with ART; conditions: 7 days
Description: Mouse mammary 4T1 cells in passage numbers between 7 and 12 (10^4 cells/ml in 50 µl PBS) were injected into the inguinal 4th mammary fat pad of BALB/c mice ([23], [24]). Normal mice received an equal volume of sterile PBS. A palpable tumor was allowed to develop for 14 days ([24]). […] Normal (mammary fat pad surrounding the 4th inguinal mammary pad), mammary tumor, and organs like lungs, kidney, liver, and blood were collected at the end of the experimental schedule. Body weight and tumor volume of each mouse were recorded daily during the tenure of the experiment. Tumor volume was calculated using the following formula: length (mm) × width^2 (mm) × 0.52 ([25]). Levels of alanine aminotransferase (ALT) and aspartate aminotransferase (AST) from the serum were determined using ALT and AST estimation kits (Robonik India Pvt. Ltd, India). Briefly, for ALT activity estimation, Reagent 1 (Tris Buffer, L-Alanine, Lactate Dehydrogenase) and Reagent 2 (α-ketoglutarate, NADH) was mixed (4:1) with 100 µl serum. After 60 seconds incubation, absorbance was measured at 340 nm every minute for 180 seconds (ΔA/minute). Finally, the activity was estimated using the formula: Activity of the sample = (ΔA/minute x 1746). Analysis and final calculations were carried out according to the manufacturer’s protocol ([29]) For AST activity estimation, Reagent 1 (Tris Buffer, L-Aspartate, Lactate Dehydrogenase; >600U/L, Malate dehydrogenase; >600U/L) and Reagent 2 (α-ketoglutarate, NADH) was mixed together (4:1) with 100 µl serum. After incubation for 60 seconds, absorbance was measured at 340 nm per minute for 180 seconds (ΔA/minute). Finally, the activity was estimated using the formula: Activity of the sample = (ΔA/minute x 1746). Analysis and final calculations were carried out according to the manufacturer’s protocol ([30]). For estimation of creatinine level, picric acid (0.5 ml), buffer (0.5 ml) and sample (Test)/standard (S) (0.1 ml) were mixed and absorbance was measured at 520 nm for 30 seconds and 60 seconds. The rate of change of absorbance was determined for the standard (ΔS) and test (ΔT) samples. The levels were estimated using the formula: creatinine (mg/dl) = (ΔT)/(ΔS) x 2.0 ([31]). Urea levels were estimated using specific metabolite analysis kits. Buffer (1 ml), enzyme (0.1 ml), sample (test)/standard (0.1 ml) and chromogen reagent (0.2 ml) were mixed. Absorbance was measured at 570 nm after 5 minutes of incubation of test (Abs T) and standard (Abs S) samples. The levels were estimated using the formula: Urea (mg/dl) = (AbsT)/(AbsS) x 40. Analysis and calculations were carried out according to the manufacturer’s protocol ([32]).

normal mice = experiment: Hematological parameters of normal mice treated with ART
Description: Blood was drawn for hematological estimations by thoracotomy and collected in heparinized vials. Blood was diluted using RBC diluting fluid (1: 1000) and WBC diluting fluid (1:100), and RBCs and WBCs were counted using a Neubauer counting chamber. Differential count was performed on blood smear stained with Leishman stain and observed under a microscope at 40X magnification (Dewinter Optical Inc., India). The percentage of lymphocytes, neutrophils, monocytes, eosinophils and basophils were recorded according to their nuclear structure ([27]). Hemoglobin content was estimated using Drabkin’s solution (1g sodium bicarbonate, 0.05g potassium cyanide and 0.2g potassium ferricyanide per liter), which lysed RBCs to convert hemoglobin to cyanmethemoglobin. Finally, the hemoglobin content of the test and the standard samples were obtained in gm/dl by recording the O.D. at 540 nm, and using the formula: O.D of test/O.D of standard x concentration of standard ([28]).

beclin1 and LC3α/β = experiment: Western blot of autophagic markers in tumor tissues; conditions: ART dose-dependent
Description: Normal and tumor tissues were homogenized in ice-cold radioimmunoprecipitation assay (RIPA) buffer containing a protease inhibitor cocktail. Proteins were resolved by 10% sodium dodecyl sulphate-polyacrylamide gel electrophoresis (SDS-PAGE), transferred onto polyvinylidene difluoride (PVDF) membranes, blocked with 5% fat-free milk and incubated with primary antibodies (1:1000 dilution) overnight at 4°C. Blots were subsequently washed and incubated with respective secondary antibodies, tagged with horseradish peroxidase. Protein expression was detected using enhanced chemiluminescence (ECL) kit ([37]). Blots were analyzed using the Gel Doc XR and band intensity quantified using ImageJ software (NIH, USA).

tumor cells = experiment: Autophagic cells (acridine orange, flow cytometry) in cells isolated from tumors; conditions: tumor-bearing mice, T+6.25 to T+50 mg/kg, vs Tumor
Description: Acidic vesicular organelles (AVOs) were examined by microscopy and quantified using flow cytometry of acridine orange (AO) stained cells. Cells were isolated from tissues by collagenase-hyaluronidase digestion and stained with AO (1µg/ml) by incubation at 37°C for 15 minutes in dark. Following subsequent PBS washes, the cells were observed under Olympus laser-scanning confocal microscope (FV-10 ASW 3.0 viewer image browser) at 450 and 593 nm to determine AVOs.

C[C@@H]1CC[C@H]2[C@@H](C)C(=O)O[C@@H]3O[C@@]4(C)CC[C@@H]1[C@]32OO4 [ART, Artemisinin]
ALT (tumor-bearing mice; ART 6.25 mg/kg body wt i.p.): 43.8 ± 1.8 U/l
AST (tumor-bearing mice; ART 6.25 mg/kg body wt i.p.): 38.6 ± 2.6 U/l
Creatinine (tumor-bearing mice; ART 6.25 mg/kg body wt i.p.): 1.21 ± 0.21 mg/dL
Urea (tumor-bearing mice; ART 6.25 mg/kg body wt i.p.): 44.5 ± 1.8 mg/dL
ALT (tumor-bearing mice; ART 12.5 mg/kg body wt i.p.): 41.3 ± 3.1 U/l
AST (tumor-bearing mice; ART 12.5 mg/kg body wt i.p.): 38.2 ± 2.4 U/l
Creatinine (tumor-bearing mice; ART 12.5 mg/kg body wt i.p.): 0.85 ± 0.18 mg/dL
Urea (tumor-bearing mice; ART 12.5 mg/kg body wt i.p.): 32.3 ± 0.5 mg/dL
ALT (tumor-bearing mice; ART 25 mg/kg body wt i.p.): 38.9 ± 2.9 U/l
AST (tumor-bearing mice; ART 25 mg/kg body wt i.p.): 33.2 ± 2.8 U/l
Creatinine (tumor-bearing mice; ART 25 mg/kg body wt i.p.): 0.71 ± 0.16 mg/dL
Urea (tumor-bearing mice; ART 25 mg/kg body wt i.p.): 32.2 ± 1.1 mg/dL
ALT (tumor-bearing mice; ART 50 mg/kg body wt i.p.): 36.6 ± 1.6 U/l
AST (tumor-bearing mice; ART 50 mg/kg body wt i.p.): 31.8 ± 2.9 U/l
Creatinine (tumor-bearing mice; ART 50 mg/kg body wt i.p.): 0.68 ± 0.11 mg/dL
Urea (tumor-bearing mice; ART 50 mg/kg body wt i.p.): 27.1 ± 1.4 mg/dL
Differential Count % B (Basophils) (normal mice; ART 6.25 mg/kg body wt): 0%
Differential Count % E (Eosinophils) (normal mice; ART 6.25 mg/kg body wt): 0%
Differential Count % L (Lymphocytes) (normal mice; ART 6.25 mg/kg body wt): 67± 4.1%
Differential Count % M (Monocytes) (normal mice; ART 6.25 mg/kg body wt): 0%
Differential Count % N (Neutrophils) (normal mice; ART 6.25 mg/kg body wt): 33± 3.1%
Hb (normal mice; ART 6.25 mg/kg body wt): 13.1 ± 0.45 g/dL
Total RBC (normal mice; ART 6.25 mg/kg body wt): 8.1± 0.62 10^6cells/mm^3
Differential Count % B (Basophils) (normal mice; ART 12.5 mg/kg body wt): 0%
Differential Count % E (Eosinophils) (normal mice; ART 12.5 mg/kg body wt): 0%
Differential Count % L (Lymphocytes) (normal mice; ART 12.5 mg/kg body wt): 72± 1.7%
Differential Count % M (Monocytes) (normal mice; ART 12.5 mg/kg body wt): 0%
Differential Count % N (Neutrophils) (normal mice; ART 12.5 mg/kg body wt): 28± 3.5%
Hb (normal mice; ART 12.5 mg/kg body wt): 14.1 ± 0.47 g/dL
Total RBC (normal mice; ART 12.5 mg/kg body wt): 7.8± 0.38 10^6cells/mm^3
Total WBC (normal mice; ART 12.5 mg/kg body wt): 8.3± 1.8 10^3 cells/mm^3
Differential Count % B (Basophils) (normal mice; ART 25 mg/kg body wt): 0%
Differential Count % E (Eosinophils) (normal mice; ART 25 mg/kg body wt): 0%
Differential Count % L (Lymphocytes) (normal mice; ART 25 mg/kg body wt): 74± 3.4%
Differential Count % M (Monocytes) (normal mice; ART 25 mg/kg body wt): 0%
Differential Count % N (Neutrophils) (normal mice; ART 25 mg/kg body wt): 26± 2.3%
Hb (normal mice; ART 25 mg/kg body wt): 14.7 ± 0.39 g/dL
Total RBC (normal mice; ART 25 mg/kg body wt): 8.2± 0.34 10^6cells/mm^3
Total WBC (normal mice; ART 25 mg/kg body wt): 8.75± 2.6 10^3 cells/mm^3
Differential Count % B (Basophils) (normal mice; ART 50 mg/kg body wt): 0%
Differential Count % E (Eosinophils) (normal mice; ART 50 mg/kg body wt): 0%
Differential Count % L (Lymphocytes) (normal mice; ART 50 mg/kg body wt): 70± 2.2%
Differential Count % M (Monocytes) (normal mice; ART 50 mg/kg body wt): 1%
Differential Count % N (Neutrophils) (normal mice; ART 50 mg/kg body wt): 29 ± 3.2%
Hb (normal mice; ART 50 mg/kg body wt): 13.8 ± 0.41 g/dL
Total RBC (normal mice; ART 50 mg/kg body wt): 8.1± 0.41 10^6cells/mm^3
Total WBC (normal mice; ART 50 mg/kg body wt): 8.3± 1.44 10^3 cells/mm^3
expression of autophagic markers, beclin1 and LC3α/β (beclin1 and LC3α/β): decreased expression
percentage of autophagic cells (tumor cells): dose-dependent decrease
